Data published in US20060019335A1, “Compositions and methods to promote c-IAP autodegradation” (priority 2004, published 2006).
Residues, ends and D or L forms follow the SMILES beside them. *: point of attachment. Cbz = O=C(OCc1ccccc1)*

Key:
c-IAP2 = target: T1, c-IAP2 (Homo sapiens, UniProt Q13489); experiment: Co-transfection of HeLa cells with c-IAP2 and Smac plasmids, Western blot; assay type: cell-based; conditions: MG132 added
T1 construct: produced not only the expected full length c-IAP1 or c-IAP2; expressed in transfected cells; host or cells: HeLa
T1 sequence (Q13489 whole entry): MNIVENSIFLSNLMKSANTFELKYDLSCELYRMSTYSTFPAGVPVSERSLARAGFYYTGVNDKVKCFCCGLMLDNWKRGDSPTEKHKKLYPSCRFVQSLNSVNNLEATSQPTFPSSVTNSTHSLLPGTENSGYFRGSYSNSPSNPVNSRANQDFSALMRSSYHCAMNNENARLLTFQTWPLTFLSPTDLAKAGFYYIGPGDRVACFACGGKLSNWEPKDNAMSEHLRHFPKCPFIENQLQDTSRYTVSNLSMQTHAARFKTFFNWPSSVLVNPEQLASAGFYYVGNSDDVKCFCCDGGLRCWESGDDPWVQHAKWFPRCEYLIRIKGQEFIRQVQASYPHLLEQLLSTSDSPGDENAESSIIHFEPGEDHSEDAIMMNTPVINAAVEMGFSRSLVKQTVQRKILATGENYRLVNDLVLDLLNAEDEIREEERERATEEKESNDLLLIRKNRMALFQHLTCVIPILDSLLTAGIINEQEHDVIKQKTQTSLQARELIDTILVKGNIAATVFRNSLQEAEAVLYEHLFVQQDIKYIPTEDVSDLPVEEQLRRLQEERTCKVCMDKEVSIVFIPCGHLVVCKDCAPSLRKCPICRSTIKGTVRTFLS
Description: (§1) Transfection of cultured Cells—HeLa cells were grown in DMEM supplemented with 10% fetal bovine serum. Cells were seeded onto 6-well plates the day before transfection and transfected at 70% confluence by using Lipofectin combined with Plus reagent (Invitrogen) according to the manufacture's protocols. The IAP expression plasmids (3 μg each for c-IAP1, c-IAP2 and XIAP, and 250 ng each for Livin αand Livin β) together with 2.5 μg of Smac expression plasmids or pcDNA3.1(−) blank plasmid were used for single-well transfection in the absence of antibiotics. The cells were harvested 12 hours after the transfection and lysed with 0.5% CHAPS in 20 mM HEPES (pH 7.4), 10 mM KCl, 1 mM MgCl2 and 1 mM DTT. The lysates were centrifuged and the protein concentrations of the supernatants were quantified by the modified Bradford method (36).
(§2) Western Blot analysis—Proteins were resolved by SDS-PAGE and transferred to nitrocellulose filters. The filters were blocked with 5% milk and probed with antibodies as indicated. The signals were visualized with the enhanced chemiluminescence method.
(§3) To investigate the effect of Smac polypeptide on IAP protein levels, HeLa cells were transfected with the expression vectors for Smac and various IAPs. Briefly, HeLa cells were either transfected with IAP alone (Lane 2, 4 and 6), or together with Smac polypeptide (Lane 3, 5 and 7), or with Smac polypeptide alone (Lane 1). Equal amounts of cell lysates (7 μg) were immunoblotted with either the HRP-conjugated anti-FLAG antibody (shown in the top panel) in order to detect N-terminal 3×FLAG tagged IAPs, or with the anti-c-Myc antibody (bottom panel) to detect C-terminal c-Myc tagged Smac. The ubiquitin fusion technique was used to secure the production of mature Smac protein with the expected N-terminal AVPI motif (6, 37).
(§4) Because it is known that the His^588 residue in the RING finger domain is important for the IAP E3 activity (22), this residue was mutated to test whether Smac stimulated the ubiquitylation-mediated degradation of both c-IAP1 and c-IAP2. In each case, His^588 in c-IAP1 and His^574 in c-IAP2 was mutated to Ala (H588A mutant and H574A mutant, respectively) and the results are depicted in FIGS. 2A and 2B. The c-IAP1 WT or H588A mutant plasmids together with either Smac WT or Smac ΔA mutant, or with pcDNA3.1 (−) blank plasmid were co-transfected into HeLa cells (FIG. 2A). The c-IAP2 WT or H574A mutant plasmids together with either Smac WT or Smac ΔA mutant, or with pcDNA3.1 (−) blank plasmid were co-transfected into HeLa cells (FIG. 2B). As controls, HeLa cells were also transfected with either Smac WT or ΔA plasmids together with the blank p3×FLAG-CMV-7 plasmid. The transfected cells were cultivated either in the absence (see lanes 1-7 of FIGS. 2A and 2B) or in the presence (see lanes 8-14 of FIGS. 2A and 2B) of MG132. Equal amounts of soluble proteins (7 μg) from the transfected cells were immunoblotted with either the HRP-conjugated anti-FLAG antibody (see top panel of FIGS. 2A and 2B) to detect N-terminal 3×FLAG tagged IAPs, or with the anti-c-Myc antibody (see middle panel of FIGS. 2A and 2B) to detect C-terminal c-Myc tagged Smac. The anti-Actin immunoblotting results were to show equal protein loading (see bottom panel of FIGS. 2A and 2B).

XIAP = XIAP (Homo sapiens, UniProt P98170); experiment: Co-transfection of HeLa cells with XIAP and Smac plasmids, Western blot; assay type: cell-based; design: expressed in transfected cells; host or cells: HeLa; conditions: presence of MG132
XIAP, sequence (P98170 whole entry): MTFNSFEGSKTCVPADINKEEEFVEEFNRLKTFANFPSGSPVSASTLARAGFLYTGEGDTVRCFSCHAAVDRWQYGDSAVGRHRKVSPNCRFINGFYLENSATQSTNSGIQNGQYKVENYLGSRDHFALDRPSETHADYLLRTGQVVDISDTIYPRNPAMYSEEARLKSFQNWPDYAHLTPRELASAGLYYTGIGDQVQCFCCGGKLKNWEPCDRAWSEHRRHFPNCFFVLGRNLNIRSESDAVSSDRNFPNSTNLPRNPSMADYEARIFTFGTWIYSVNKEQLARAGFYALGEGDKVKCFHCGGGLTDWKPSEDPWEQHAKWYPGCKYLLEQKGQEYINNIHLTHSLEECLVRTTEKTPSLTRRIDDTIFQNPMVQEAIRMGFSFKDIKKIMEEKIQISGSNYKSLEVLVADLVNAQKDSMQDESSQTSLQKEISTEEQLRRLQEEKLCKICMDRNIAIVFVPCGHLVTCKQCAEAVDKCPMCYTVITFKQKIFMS
Description: as §1, §2, §3
It is known that XIAP is ubiquitylated by its own E3 activity when expressed in HEK 293T cells and that this auto-ubiquitylation and subsequent degradation is stimulated by Reaper (26). In the current study, XIAP transiently expressed in HeLa cells was ubiquitylated as well; however, mono-ubiquitylation rather than poly-ubiquitylation of XIAP was the major product (see FIG. 3A). Briefly, XIAP WT or H467A mutant plasmids together with either Smac WT or ΔA, or with pcDNA3.1(−) blank plasmid, were co-transfected into the HeLa cells. As controls, HeLa cells were also transfected with either Smac WT or ΔA plasmids together with the blank p3×FLAG-CMV-7 plasmid. The transfected cells were cultivated either in the absence (see lanes 1-7 of FIG. 3A) or in the presence (see lanes 8-14 of FIG. 3A) of MG132. Equal amounts of soluble proteins (7 μg) from the transfected cells were immunoblotted with either the HRP-conjugated anti-FLAG antibody (see top panel of FIG. 3A) to detect N-terminal 3×FLAG tagged IAPs, or with the anti-c-Myc antibody (see middle panel of FIG. 3A) to detect Smac. The anti-Actin immunoblotting results were to show equal protein loading (see bottom panel of FIG. 3A).

c-IAP1 [1] = experiment: Co-transfection of HeLa cells with c-IAP1 and Smac plasmids, Western blot; assay type: cell-based, human; conditions: MG132 added to the culture medium
Description: as §1, §2, §3, §4

c-IAP1 [2] = experiment: In vitro ubiquitylation assay of purified c-IAP1 and BIR deletion mutants; assay type: biochemical, human
Description: In vitro ubiquitylation assays—In vitro ubiquitylation assays were carried out as previously described (29). IAP proteins (200 nM) were incubated with or without Smac polypeptide for 2 hours at 30° C. in a reaction system containing 50 mM Tris-HCl (pH 7.5), 50 mM NaCl, 2 mM Mg-ATP, 20 μM mammalian ubiquitin, 100 nM rabbit ubiquitin-activating enzyme (E1) and 400 nM of recombinant human ubiquitin-conjugating enzymes (E2). The reactions were stopped by adding equal volumes of 2×SDS sample loading buffer followed by Western Blot analysis.
To determine whether Smac promotes auto-ubiquitylation of XIAP, purified XIAP (without tag) was incubated for 2 hours at 30° C. either with or without different concentrations of Smac or with Smac ΔA in the reconstituted ubiquitylation reaction system (Ub Mix) consisting of 50 mM Tris-HCl (pH 7.5), 50 mM NaCl, 2 mM Mg-ATP, 20 μM mammalian ubiquitin, 100 nM rabbit ubiquitin-activating enzyme (E1) and 400 nM UbCH6 (E2). The reactions were stopped by adding equal volumes of 2×SDS sample loading buffer and the products were subjected to SDS-PAGE followed by immunoblotting with anti-XIAP antibody. The purified XIAP was active in directing poly-ubiquitylation. But the auto-ubiquitylation of XIAP was not enhanced by Smac.
Smac ΔA and the peptide Smac-7M were used as negative controls. The reactions were stopped by adding equal volumes of 2×SDS sample loading buffer and the products were subjected to SDS-PAGE followed by immunoblotting with anti-c-IAP1 antibody. The arrows indicate the unmodified full length or deleted c-IAP1.
To verify this, stepwise deletion was performed of the first BIR (ΔBIR1, residues 1-161), the first two BIRs (ΔBIR1-2, residues 1-265), or all the three BIR domains (ΔBIR1-2-3, residues 1-339) from c-IAP1. All these mutants and the full-length wild type c-IAP1 were purified as a non-tagged form by using the pTYB11 Intein system (New England Biolabs).
Target sequence in this assay (Q13490 162-618): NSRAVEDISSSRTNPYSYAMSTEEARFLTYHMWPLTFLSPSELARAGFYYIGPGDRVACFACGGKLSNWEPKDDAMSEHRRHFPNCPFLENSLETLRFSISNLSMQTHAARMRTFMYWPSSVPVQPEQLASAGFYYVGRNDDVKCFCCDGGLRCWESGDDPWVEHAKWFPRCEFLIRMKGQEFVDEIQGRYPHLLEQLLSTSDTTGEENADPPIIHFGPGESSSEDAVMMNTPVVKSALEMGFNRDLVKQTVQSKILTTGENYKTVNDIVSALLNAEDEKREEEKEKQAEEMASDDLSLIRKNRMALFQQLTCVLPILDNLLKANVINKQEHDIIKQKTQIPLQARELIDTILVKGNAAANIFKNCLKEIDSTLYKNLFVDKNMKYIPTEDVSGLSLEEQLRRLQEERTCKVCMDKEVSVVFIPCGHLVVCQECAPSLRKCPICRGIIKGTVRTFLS

| Compound | level of c-IAP2 (c-IAP2) | poly-ubiquitylated XIAP products (XIAP) | H588A c-IAP1 protein level (c-IAP1 [1]) | amount of wild type c-IAP1 (c-IAP1 [1]) | stimulation of E3 activity of c-IAP compared with full length Smac (c-IAP1 [2]; as illustrated in the Examples) | E3 activity of c-IAP1ΔBIR1 (c-IAP1 [2]; peptides and controls, FIG. 7B) |
| --- | --- | --- | --- | --- | --- | --- |
| CC(C)C[C@@H](C=O)NC(=O)[C@H](CC(C)C)NC(=O)[C@H](CC(C)C)NC(=O)OCc1ccccc1 [MG132, reference compound] (Cbz-Leu-Leu-Leu-aldehyde) | did not show such a significant change | more poly-ubiquitylated XIAP products could be detected | did not cause a significant increase | dramatically increased |  |  |
| AVPIAQ (listed as Homo sapiens) [Smac-6] |  |  |  |  | as effectively as the full length Smac polypeptide | effectively stimulated E3 activity |
